Data from publication PMC7831015, “Evaluation of the Hemocompatibility and Anticancer Potential of Poly(ε-Caprolactone) and Poly(3-Hydroxybutyrate) Microcarriers with Encapsulated Chrysin” (Pharmaceutics, 2021).
pIC50: −log10 of the molar value.

Legend:
human RBCs = test: Hemolysis assay; assay type: cell-based
Description: (§1) Human blood samples were freshly collected from ten healthy volunteers and divided into tubes containing the anticoagulant agent ethylenediamine tetraacetic acid (EDTA), according to the protocols approved by the National Institute of Health and the Food and Drug Administration.
(§2) The hemocompatibility of free chrysin and the produced micro-formulations was evaluated via the hemolysis assay performed using a biochemical analyzer Konelab 30, Thermo Scientific. The experimental procedure was as follows: Whole blood samples were centrifuged for 10 min at 1500 rpm to remove plasma. The obtained cell pellets were washed three times with sterile PBS (10 mM, pH 7.2) to separate the red blood cells (RBCs) from other blood components, such as the white blood cells, plasma proteins, and excess antibodies, centrifuged and finally re-suspended at 5 mL PBS. The hemolysis assay was performed by adding 100 µL of the RBC suspension to 900 µL of PBS, containing several concentrations (5, 20, 40, 60, 80, 100, 200, 300, 400, 500 µg·mL^−1) of free chrysin, ChrPCL/PVAMCs, or ChrPHB/PVAMCs. The positive (+) control sample of hemolysis used (100% hemolysis) consisted of 900 µL of ultrapure water and 100 µL of washed RBCs. The negative (−) control sample (0% hemolysis) consisted of 900 µL PBS and 100 µL of washed RBCs. PBS and PBS containing either free chrysin, ChrPCL/PVAMCs, or ChrPHB/PVAMCs were used as blank samples. All samples were incubated for 24 h at 37 °C, under agitation at 120 rpm. After incubation, they were centrifuged at 700 rpm for 5 min, and the absorbance of the supernatant was measured at 541 nm. The % hemolysis was calculated after subtracting the blank values, and by setting the control (+) value as 100% of hemolysis. The absorbance was transformed to hemolysis percentage using the following equation: Percentage of hemolysis (%)=ODSample − ODNegative control/ODPositive control − ODNegative control where OD stands for Optical density.

Hemolysis assay = assay type: cell-based, human; conditions: human, washed human red blood cells (RBC suspension), pH 7.2, 24 h, 37 °C, free chrysin solution in DMSO (5%), read-out: Percentage of Hemolysis
Description: as §1, §2

[1] = test system: MDA-MB-231 human breast cancer cells; test: MTT cell viability assay; assay type: cell-based; conditions: MDA-MB-231, 48 h, for MCs expressed as encapsulated chrysin content, read-out: IC50 (inhibitory concentration of chrysin for 50% viability)
Description: Epithelial human breast cancer MDA-MB-231 cells were grown in Dulbecco’s Modified Eagle′s—Medium (DMEM) growth medium (pH 7.4) supplemented with 10% Fetal Bovine Serum (FBS) and 50 µg·mL^−1 gentamycin at 37 °C in a 5% humidified CO2 incubator.
In the present study, the cell viability of MDA-MB-231 breast cancer line was evaluated via the MTT assay. The method relies on the conversion of the yellow 3-(4,5-dimethylthiazol-2-yl)-2,5-diphenyl tetrazolium bromide (MTT) to purple formazan crystals. The reduction of MTT is catalyzed by the mitochondrial dehydrogenase enzyme and is therefore a measure for cell viability. MDA-MB-231 cells were exposed to free chrysin, ChrPCL/PVAMCs, or ChrPHB/PVAMCs in their exponential phase of growth. More specifically, in a 96-well plate (Corning, NY, USA), a number of 1 × 10^4 cells/well were seeded, and after 24 h (80% confluency) they were treated with different concentrations of ChrPCL/PVAMCs or ChrPHB/PVAMCs ranging between 0–400 µg·mL^−1. Due to the different loading capacity of chrysin in each type of MCs, free chrysin (dissolved in DMSO) was added accordingly, in equal concentrations (µM), with the encapsulated chrysin in the MCs, as estimated in Section 3.5. […] Finally, a Synergy HTX BioTEK plate reader (with a reference wavelength of 630 nm) was used to determine the absorbance measurement at 545 nm. […]

human blood samples = test: Blood profile analysis (hematological parameters); assay type: cell-based; conditions: human blood, 5, 80 and 200 µg·mL^−1, 37 °C, 1 h
Description: as §1
The blood profile analysis was performed using an automatic hematological analyzer Beckman Coulter ACT 5 Diff OV, (Beckman Coulter International S.A., Nyon, Switzerland) for the determination of different hematological parameters, such as red blood cells (RBCs) count ([…]), hemoglobin (HGB) g·dL^−1), hematocrit (HCT) (%), mean corpuscular volume (MCV) (in femtoliters, fl), mean corpuscular hemoglobin (MCH) (pg), mean corpuscular hemoglobin concentration (MCHC), red cell distribution width (RDW), white blood cells (WBCs) (10^9/L), neutrophils (NE) (%), lymphocytes (LY) (%), monocytes (MO) (%), eosinophils (EO) (%), basophils (BA) (%), and platelets (PLTs) (10^9/L), after exposure to free chrysin, ChrPCL/PVAMCs, or ChrPHB/PVAMCs, and without exposure to any agent. Briefly, the sample preparation was performed as follows: A 100 µL sample of whole blood was added to 900 µL of PBS. Then, either chrysin, ChrPCL/PVAMCs, or ChrPHB/PVAMCs were added to this diluted blood to achieve three concentrations: low, high, and very high (5, 80, and 200 µg·mL^−1, respectively). […]

pIC50 [1]: 3.95 | PLT values compared to negative control (human blood samples): significant decrease | hematological parameters (RBCs, HGB, HCT, MCV, MCH, MCHC, RDW, WBCs, NE, LY, MO, EO, BA) compared to negative control (human blood samples): did not display significant deviation
Structure (SMILES): O=c1cc(-c2ccccc2)oc2cc(O)cc(O)c12 [chrysin, 5,7-dihydroxyflavone]
hemoglobin release from RBCs (micrographs) (human RBCs; 500 µg·mL^−1): hemoglobin release from RBCs is obvious | hemolytic activity (human RBCs; concentrations between 100 and 500 µg·mL^−1, diluted in 5% DMSO): greater than 5% | hemolysis at 24 h, 5 µg·mL^−1 (Hemolysis assay; 5 µg·mL^−1): 1.2% | hemolysis at 24 h, 20 µg·mL^−1 (Hemolysis assay; 20 µg·mL^−1): 2.1% | hemolysis at 24 h, 40 µg·mL^−1 (Hemolysis assay; 40 µg·mL^−1): 2.7% | hemolysis at 24 h, 60 µg·mL^−1 (Hemolysis assay; 60 µg·mL^−1): 3% | hemolysis at 24 h, 80 µg·mL^−1 (Hemolysis assay; 80 µg·mL^−1): 3.5% | hemolysis at 24 h, 100 µg·mL^−1 (Hemolysis assay; 100 µg·mL^−1): 6.8% | hemolysis at 24 h, 200 µg·mL^−1 (Hemolysis assay; 200 µg·mL^−1): 7% | hemolysis at 24 h, 300 µg·mL^−1 (Hemolysis assay; 300 µg·mL^−1): 7.3% | hemolysis at 24 h, 400 µg·mL^−1 (Hemolysis assay; 400 µg·mL^−1): 7.9% | hemolysis at 24 h, 500 µg·mL^−1 (Hemolysis assay; 500 µg·mL^−1): 8.2%
